This note sets out measurements from patent publication US20250026743A1, “HETEROARYL-LINKED ANALOGS AS MGLU5 NEGATIVE ALLOSTERIC MODULATORS AND METHODS OF MAKING AND USING THE SAME” (Vanderbilt University, priority 2021, published 2025).

For the assay, the target named is T1, hmGlu5 (Homo sapiens, UniProt P41594).
T1 construct: expressed in transfected cells; host or cells: HEK 293A
The experiment in a line: mGlu5 Ca2+ flux assay in HEK 293A cells (negative allosteric modulation of glutamate EC80 response). It is filed as cell-based. The settings on record: for remaining activity at 30 µM: HEK293-A, % Glu max at 30 μM, read-out: hmGlu5 NAM Emin (%); for IC50: HEK 293A cells, Ca2+ flux, glutamate EC80, >10,000 = decrease without plateau, read-out: hmGlu5 NAM IC50. As for the experimental part: HEK 293A cells stably expressing either rat or human mGlu5 were plated in black-walled, clear-bottomed, poly-D-lysine coated 384-well plates in 20 μL of assay medium (DMEM containing 10% dialyzed FBS, 20 mM HEPES, 100 units/mL penicillin/streptomycin plus 250 ng/mL Fungizone, and 1 mM sodium pyruvate) at a density of 20K cells/well. The cells were grown overnight at 37° C. in the presence of 5% CO2. The next day, medium was removed and the cells incubated with 20 μL of 2.3 μM Fluo-4, AM prepared as a 2.3 mM stock in DMSO and mixed in a 1:1 ratio with 10% (w/v) pluronic acid F-127 and diluted in assay buffer (Hank's balanced salt solution, 20 mM HEPES, and 2.5 mM probenecid) for 45 minutes at 37° C. Dye was removed, 20 μL of assay buffer was added, and the plate was incubated for 5 minutes at room temperature.
Ca^2+ flux was measured using the Functional Drug Screening System (FDSS7000, Hamamatsu, Japan). After establishment of a fluorescence baseline for about 3 seconds, the compounds of the present invention were added to the cells, and the response in cells was measured. 2.3 minutes later an EC20 concentration of the mGlu5 receptor agonist glutamate was added to the cells, and the response of the cells was measured for 1.9 minutes; an EC80 concentration of agonist was added and readings taken for an additional 1.7 minutes. All test compounds were dissolved and diluted to a concentration of 10 mM in 100% DMSO. Compounds were then serially diluted 1:3 in DMSO into 10 point concentration response curves, transferred to daughter plates, and further diluted into assay buffer to a 2× stock. Calcium fluorescence measures were recorded as fold over basal fluorescence; raw data was then normalized to the maximal response to glutamate. Antagonism of the agonist response of the mGlu5 receptor in the present invention was observed as a decrease in response to nearly maximal concentrations of glutamate in the presence of compound compared to the response to glutamate in the absence of compound.
The raw data file containing all time points was used as the data source in the analysis template. This was saved by the FDSS as a tab-delimited text file. Data were normalized using a static ratio function (F/F0) for each measurement of the total 360 values per well divided by each well's initial value. Data were then reduced to peak amplitudes (Max−Initial Min) using a time range that starts approximately 3 seconds prior to the glutamate EC20/EC80 addition and continues for approximately 90-120 seconds. This is sufficient time to capture the peak amplitude of the cellular calcium response. Individual amplitudes were expressed as % EMax by multiplying each amplitude by 100 and then dividing the product by the mean of the amplitudes derived from the glutamate ECMax-treated wells. IC50 values for test compounds were generated by fitting the normalized values versus the log of the test compound concentration (in mol/L) using a 4 parameter logistic equation where none of the parameters were fixed. Each of the three values collected at each concentration of test compound were weighted evenly.
For NAMs with a CRC that plateaus above 10% Glu Max, the IC50 values are reported, the compound is designated a “partial NAM” and the % Glu Max is reported. […] Compounds without measurable activity are designated as “>30,000 nM” since the top concentration of compound tested in the assay is 30 μM. […]
Background: Calcium assays in cells follow changes in intracellular calcium, usually with a dye or a luminescent sensor.

T1 sequence (P41594 21-1212): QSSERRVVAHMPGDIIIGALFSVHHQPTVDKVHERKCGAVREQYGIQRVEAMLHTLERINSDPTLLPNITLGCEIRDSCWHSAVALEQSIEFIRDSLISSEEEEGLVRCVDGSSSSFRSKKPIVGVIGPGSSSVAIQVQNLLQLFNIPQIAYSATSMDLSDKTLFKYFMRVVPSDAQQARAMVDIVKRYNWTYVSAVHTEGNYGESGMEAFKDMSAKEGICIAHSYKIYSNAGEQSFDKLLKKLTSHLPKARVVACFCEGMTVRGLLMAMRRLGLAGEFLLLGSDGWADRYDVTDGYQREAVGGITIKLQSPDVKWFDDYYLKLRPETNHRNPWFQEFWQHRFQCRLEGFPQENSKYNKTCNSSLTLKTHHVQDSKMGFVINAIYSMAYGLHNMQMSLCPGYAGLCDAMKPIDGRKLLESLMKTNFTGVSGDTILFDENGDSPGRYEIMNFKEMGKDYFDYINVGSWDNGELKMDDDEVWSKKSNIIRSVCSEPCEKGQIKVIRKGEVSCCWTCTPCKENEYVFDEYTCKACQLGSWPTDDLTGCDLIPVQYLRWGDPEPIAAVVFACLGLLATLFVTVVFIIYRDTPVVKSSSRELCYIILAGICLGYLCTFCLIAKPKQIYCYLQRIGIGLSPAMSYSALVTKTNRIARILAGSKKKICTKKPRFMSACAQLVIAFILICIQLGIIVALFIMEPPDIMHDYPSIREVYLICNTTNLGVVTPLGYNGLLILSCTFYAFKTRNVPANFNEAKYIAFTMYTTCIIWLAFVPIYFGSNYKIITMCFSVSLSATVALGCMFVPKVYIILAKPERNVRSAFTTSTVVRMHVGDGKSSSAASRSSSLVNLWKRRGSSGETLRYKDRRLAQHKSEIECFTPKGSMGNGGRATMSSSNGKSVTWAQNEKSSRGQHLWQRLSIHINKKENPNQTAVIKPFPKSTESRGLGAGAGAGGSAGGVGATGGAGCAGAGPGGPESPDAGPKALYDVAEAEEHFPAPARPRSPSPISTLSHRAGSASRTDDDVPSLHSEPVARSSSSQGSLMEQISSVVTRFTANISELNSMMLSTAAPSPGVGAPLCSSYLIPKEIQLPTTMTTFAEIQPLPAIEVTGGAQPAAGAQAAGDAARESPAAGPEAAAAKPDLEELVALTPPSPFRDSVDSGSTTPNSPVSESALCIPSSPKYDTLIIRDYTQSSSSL

`Cc1ccncc1-c1cc(-c2noc(-c3ccc(F)cn3)n2)ncc1F` [Compound 1, 3-(5′-fluoro-4-methyl-[3,4′-bipyridin]-2′-yl)-5-(5-fluoropyridin-2-yl)-1,2,4-oxadiazole]: the remaining activity at 30 µM came out at 3% and the 50% inhibitory concentration (IC50) – broadly, the midpoint of a concentration-inhibition curve – stood at 192 nM.
As for `Cc1ccncc1-c1cc(-c2noc(-c3ncccc3F)n2)ncc1F` [Compound 2, 3-(5′-fluoro-4-methyl-[3,4′-bipyridin]-2′-yl)-5-(3-fluoropyridin-2-yl)-1,2,4-oxadiazole], the remaining activity at 30 µM came out at 25% and the IC50 was determined as 2630 nM.
As to `Cc1ccncc1-c1cc(-c2noc(-c3cc(F)ccn3)n2)ncc1F` [Compound 3, 3-(5′-fluoro-4-methyl-[3,4′-bipyridin]-2′-yl)-5-(4-fluoropyridin-2-yl)-1,2,4-oxadiazole], the remaining activity at 30 µM was found to be 2% and the half-inhibitory concentration (IC50) worked out at 744 nM.
For `Cc1ccncc1-c1cc(-c2nc(-c3ccc(F)cn3)no2)ncc1F` [Compound 4, 5-(5′-fluoro-4-methyl-[3,4′-bipyridin]-2′-yl)-3-(5-fluoropyridin-2-yl)-1,2,4-oxadiazole], the remaining activity at 30 µM stood at 1% and the IC50 came out at 166 nM.
The corresponding values for `Cc1ccncc1-c1cc(-c2noc(-c3ccc(F)cn3)n2)nc(C)c1F` [Compound 5, 3-(5′-fluoro-4,6′-dimethyl-[3,4′-bipyridin]-2′-yl)-5-(5-fluoropyridin-2-yl)-1,2,4-oxadiazole] are 3% and 98 nM.
Taken in the same sequence, the figures for `Cc1nc(-c2noc(-c3ccc(F)cn3)n2)cc(-c2cncc(F)c2)c1F` [Compound 6, 3-(5,5′-difluoro-6′-methyl-[3,4′-bipyridin]-2′-yl)-5-(5-fluoropyridin-2-yl)-1,2,4-oxadiazole] were 2% and 59 nM.
Take `Cc1nc(-c2noc(-c3ccc(F)cn3)n2)cc(-c2cnn(C(F)F)c2)c1F` [Compound 7, 3-(4-(1-(difluoromethyl)-1H-pyrazol-4-yl)-5-fluoro-6-methylpyridin-2-yl)-5-(5-fluoropyridin-2-yl)-1,2,4-oxadiazole]: the remaining activity at 30 µM was 2% and the concentration for half-maximal inhibition (IC50) is 159 nM.
Taken in the same sequence, the figures for `Cc1ccncc1-c1cc(-c2nc(-c3ccc(F)cn3)no2)nc(C)c1F` [Compound 8, 5-(5′-fluoro-4,6′-dimethyl-[3,4′-bipyridin]-2′-yl)-3-(5-fluoropyridin-2-yl)-1,2,4-oxadiazole] were 2% and 124 nM.
For `Cc1nc(-c2nc(-c3ccc(F)cn3)no2)cc(-c2cnn(C(F)F)c2)c1F` [Compound 9, 5-(4-(1-(difluoromethyl)-1H-pyrazol-4-yl)-5-fluoro-6-methylpyridin-2-yl)-3-(5-fluoropyridin-2-yl)-1,2,4-oxadiazole], the remaining activity at 30 µM worked out at 2% and the half-maximal inhibitory concentration (IC50) came out at 328 nM.
As for `COc1c(-c2cnccc2C)cc(-c2noc(-c3ccc(F)cn3)n2)nc1C` [Compound 10, 5-(5-fluoropyridin-2-yl)-3-(5′-methoxy-4,6′-dimethyl-[3,4′-bipyridin]-2′-yl)-1,2,4-oxadiazole], the remaining activity at 30 µM was 2% and the IC50 turned out to be 641 nM.
For `COc1c(-c2cncc(F)c2)cc(-c2noc(-c3ccc(F)cn3)n2)nc1C` [Compound 11, 3-(5-fluoro-5′-methoxy-6′-methyl-[3,4′-bipyridin]-2′-yl)-5-(5-fluoropyridin-2-yl)-1,2,4-oxadiazole], the remaining activity at 30 µM was found to be 2% and the concentration for half-maximal inhibition (IC50) turned out to be 452 nM.
Taken in the same sequence, the figures for `COc1c(-c2cnn(C(F)F)c2)cc(-c2noc(-c3ccc(F)cn3)n2)nc1C` [Compound 12, 3-(4-(1-(difluoromethyl)-1H-pyrazol-4-yl)-5-methoxy-6-methylpyridin-2-yl)-5-(5-fluoropyridin-2-yl)-1,2,4-oxadiazole] were 2% and 1110 nM.
On to `COc1c(-c2cnccc2C)cc(-c2nc(-c3ccc(F)cn3)no2)nc1C` [Compound 13, 3-(5-fluoropyridin-2-yl)-5-(5′-methoxy-4,6′-dimethyl-[3,4′-bipyridin]-2′-yl)-1,2,4-oxadiazole], for which the remaining activity at 30 µM was 2% and the IC50 is 482 nM.
Taken in the same sequence, the figures for `COc1c(-c2cncc(F)c2)cc(-c2nc(-c3ccc(F)cn3)no2)nc1C` [Compound 14, 5-(5-fluoro-5′-methoxy-6′-methyl-[3,4′-bipyridin]-2′-yl)-3-(5-fluoropyridin-2-yl)-1,2,4-oxadiazole] were 2% and 339 nM.
The corresponding values for `Cc1csc(-c2nc(-c3cc(-c4cnccc4C)c(F)c(C)n3)no2)n1` [Compound 15, 3-(5′-fluoro-4,6′-dimethyl-[3,4′-bipyridin]-2′-yl)-5-(4-methylthiazol-2-yl)-1,2,4-oxadiazole] are 2% and 97 nM.
Regarding `Cc1csc(-c2nc(-c3cc(-c4cncc(F)c4)c(F)c(C)n3)no2)n1` [Compound 16, 3-(5,5′-difluoro-6′-methyl-[3,4′-bipyridin]-2′-yl)-5-(4-methylthiazol-2-yl)-1,2,4-oxadiazole], the remaining activity at 30 µM stood at 9% and the IC50 amounted to 613 nM.
The corresponding values for `CCn1cc(-c2cc(-c3noc(-c4nc(C)cs4)n3)nc(C)c2F)cn1` [Compound 17, 3-(4-(1-ethyl-1H-pyrazol-4-yl)-5-fluoro-6-methylpyridin-2-yl)-5-(4-methylthiazol-2-yl)-1,2,4-oxadiazole] are 25% and above 10000 nM.
Consider `Cc1csc(-c2nc(-c3cc(-c4cnc(C)s4)c(F)c(C)n3)no2)n1` [Compound 18, 3-(5-fluoro-6-methyl-4-(2-methylthiazol-5-yl)pyridin-2-yl)-5-(4-methylthiazol-2-yl)-1,2,4-oxadiazole], for which the remaining activity at 30 µM stood at 13% and the IC50 was 1130 nM.
For `Cc1ccncc1-c1cc(-c2noc(-c3ccccn3)n2)nc(C)c1F` [Compound 19, 3-(5′-fluoro-4,6′-dimethyl-[3,4′-bipyridin]-2′-yl)-5-(pyridin-2-yl)-1,2,4-oxadiazole], the remaining activity at 30 µM came out at 2% and the IC50 stood at 233 nM.
Consider `Cc1ccncc1-c1cc(-c2noc(-c3cccc(F)c3)n2)nc(C)c1F` [Compound 20, 3-(5′-fluoro-4,6′-dimethyl-[3,4′-bipyridin]-2′-yl)-5-(3-fluorophenyl)-1,2,4-oxadiazole], for which the remaining activity at 30 µM was found to be 2% and the IC50 amounted to 49 nM.
The corresponding values for `Cc1ccncc1-c1cc(-c2noc(-c3cccc(Cl)n3)n2)nc(C)c1F` [Compound 21, 5-(6-chloropyridin-2-yl)-3-(5′-fluoro-4,6′-dimethyl-[3,4′-bipyridin]-2′-yl)-1,2,4-oxadiazole] are 4% and 493 nM.
Turning to `Cc1cccc(-c2nc(-c3cc(-c4cnccc4C)c(F)c(C)n3)no2)n1` [Compound 22, 3-(5′-fluoro-4,6′-dimethyl-[3,4′-bipyridin]-2′-yl)-5-(6-methylpyridin-2-yl)-1,2,4-oxadiazole], the remaining activity at 30 µM turned out to be 3% and the IC50 worked out at 1090 nM.
As for `Cc1ccncc1-c1cc(-c2noc(-c3cccc(Cl)c3)n2)nc(C)c1F` [Compound 23, 5-(3-chlorophenyl)-3-(5′-fluoro-4,6′-dimethyl-[3,4′-bipyridin]-2′-yl)-1,2,4-oxadiazole], the remaining activity at 30 µM came out at 2% and the IC50 was 117 nM.
Take `Cc1ccncc1-c1cc(-c2noc(-c3cccc(C#N)c3)n2)nc(C)c1F` [Compound 24, 3-(3-(5′-fluoro-4,6′-dimethyl-[3,4′-bipyridin]-2′-yl)-1,2,4-oxadiazol-5-yl)benzonitrile]: the remaining activity at 30 µM was determined as 2% and the concentration for half-maximal inhibition (IC50) was 85 nM.
